Measurements: patent US20090239846A1, “Novel Compounds” (Glaxo Group Limited, priority 2005, published 2009)

Experiments:
[1] = test system: influx of neutrophils to the lung in LPS-challenged rats; assay: Rat LPS neutrophilia model; type: in vivo; conditions: LPS aerosol, lavage 4 hours later, in at least one of the range of conditions tested, significance p<0.05
Procedure, shortened: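 Rats pretreated 15 min–24 h with compound or vehicle, given intratracheally (200 ul, isoflurane anaesthesia) as suspension in various vehicles, then exposed to LPS aerosol (100 ug/ml) 15 min. BAL 4 h later; Diffquick-stained differential counts give % inhibition of neutrophils versus no-compound controls at a set concentration and pretreatment time.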

TNFalpha = assay: LPS-stimulated cytokine production in human whole blood; type: cell-based; conditions: LPS-stimulated TNF-alpha, bound, read-out: IC50
Description: Assay: Test compound concentrations were prepared at 10× concentrations and LPS prepared at 1 ug/ml (final conc. of 50 ng/ml LPS) and added in 50 uL volumes to 1.5 mL eppendorf tubes. Heparinized human whole blood was obtained from healthy volunteers and was dispensed into eppendorf tubes or multiwell plates containing compounds and LPS in 0.2-0.4 mL volumes and the tubes incubated at 37 C. In some studies, compound was incubated with blood for up to 30 min prior to addition of LPS. Following a 4 hour incubation, the tubes or plates were centrifuged to remove cells and plasma was withdrawn and frozen at −80 C. Cytokine measurement: IL-1beta and/or TNFalpha were quantified using a standardized ELISA, or similar technology. Concentrations of IL-1beta or TNFalpha were determined from standard curves of the appropriate cytokine and IC50 values for test compound (concentration that inhibited 50% of LPS-stimulated cytokine production) were calculated by linear regression analysis.

Recombinant human p38α = molecular target: T1, Recombinant human p38α (Homo sapiens, UniProt Q16539); assay: Fluorescence anisotropy kinase binding assay (standard or low volume); conditions: for active in the assay (pIC50, p38α binding): 12 nM p38α, 5 nM fluorescent ligand; for IC50: bound, read-out: apparent pIC50 (converted)
T1 construct: GST; made in house
T1 sequence (Q16539 whole entry): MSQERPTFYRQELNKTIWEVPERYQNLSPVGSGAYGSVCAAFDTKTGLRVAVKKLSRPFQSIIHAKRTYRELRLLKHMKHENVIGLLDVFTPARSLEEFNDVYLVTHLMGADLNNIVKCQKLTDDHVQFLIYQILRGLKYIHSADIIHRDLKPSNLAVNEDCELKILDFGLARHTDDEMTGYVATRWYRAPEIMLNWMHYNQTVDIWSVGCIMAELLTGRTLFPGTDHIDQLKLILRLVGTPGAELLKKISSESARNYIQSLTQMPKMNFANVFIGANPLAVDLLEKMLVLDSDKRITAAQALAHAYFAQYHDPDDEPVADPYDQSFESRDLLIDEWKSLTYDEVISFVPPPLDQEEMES
Procedure, shortened: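 Activated GST-tagged recombinant human p38α (pre-activated with MBP-MKK6 DD) at 12 nM final with 5 nM rhodamine green-labelled pyridinylimidazole tracer in pH 7.5 HEPES/CHAPS/DTT/MgCl2 buffer. Test compound 0.28 nM–16.6 μM or 0.02 nM–25 μM final, 3% or 1.7% DMSO; 30–60 min at room temperature. Fluorescence anisotropy read (ex 485/em 535 nm) for Ki.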

[2] = test system: IL-8 production by human neutrophils; assay: TNF-stimulated IL-8 production from human neutrophils; type: cell-based; conditions: Neutrophil, bound, not more than 50% inhibition at 100 nM, read-out: IC50

Row | SMILES | inhibition of neutrophilia [1] | melting point | IC50 (TNFalpha) | active in the assay (pIC50, p38α binding) (Recombinant human p38α) | IC50 [2] | IC50 (Recombinant human p38α)
1 | CCN(CC)CCCNc1nc(-c2cc(C(=O)NC)ccc2C)c2c(n1)N(c1c(F)cccc1F)C(=O)NC2 [Example 172, 3-[2-{[3-(diethylamino)propyl]amino}-8-(2,6-difluorophenyl)-7-oxo-5,6,7,8-tetrahydropyrimido[4,5-d]pyrimidin-4-yl]-N,4-dimethylbenzamide] | statistically nonsignificant inhibition of neutrophilia | 133 to 136 °C |  |  |  | 
2 | Cc1ccc(C(=O)NC(C)C)cc1-c1nc(N2CCCCCC2)nc2c1CNC(=O)N2c1c(F)cccc1F [Example 66, 3-[8-(2,6-difluorophenyl)-2-(hexahydro-1H-azepin-1-yl)-7-oxo-5,6,7,8-tetrahydropyrimido[4,5-d]pyrimidin-4-yl]-4-methyl-N-(1-methylethyl)benzamide] |  |  | > 1000 nM |  |  | 
3 | Cc1ccc(C(=O)NCc2ccccc2)cc1-c1nc(N2CCN(C)CC2)nc2c1CNC(=O)N2c1c(F)cccc1F [Example 148] | statistically nonsignificant inhibition of neutrophilia | 164 to 168 °C |  |  |  | 
4 | Cc1ccc(C(=O)NCc2ccccc2)cc1-c1nc(N(C)CCCN(C)C)nc2c1CNC(=O)N2c1c(F)cccc1F [Example 17, 3-{8-(2,6-Difluorophenyl)-2-[[3-(dimethylamino)propyl](methyl)amino]-7-oxo-5,6,7,8-tetrahydropyrimido[4,5-d]pyrimidin-4-yl}-4-methyl-N-(phenylmethyl)benzamide] | statistically nonsignificant inhibition of neutrophilia | 124 to 127 °C |  |  |  | 
5 | Cc1ccc(C(=O)N(C)C)cc1-c1nc(N2CCN(C)CC2)nc2c1CNC(=O)N2c1c(F)cccc1F [149(c), 3-[8-(2,6-difluorophenyl)-2-(4-methyl-1-piperazinyl)-7-oxo-5,6,7,8-tetrahydropyrimido[4,5-d]pyrimidin-4-yl]-N,N,4-trimethylbenzamide] |  | 159 to 162 °C |  | active | > 100 nM | 
6 | CNC(=O)c1ccc(C)c(-c2nc(NCCCN(C)C)nc3c2CNC(=O)N3c2c(F)cccc2F)c1 [Example 166, 3-(8-(2,6-difluorophenyl)-2-{[3-(dimethylamino)propyl]amino}-7-oxo-5,6,7,8-tetrahydropyrimido[4,5-d]pyrimidin-4-yl)-N,4-dimethylbenzamide] | statistically nonsignificant inhibition of neutrophilia | 164 to 167 °C (dec.) |  |  |  | 
7 | Cc1ccc(C(=O)N(C)C)cc1-c1nc(NCCNC(C)C)nc2c1CNC(=O)N2c1c(F)cccc1F [Example 153, 3-[8-(2,6-difluorophenyl)-2-({2-[(1-methylethyl)amino]ethyl}amino)-7-oxo-5,6,7,8-tetrahydropyrimido[4,5-d]pyrimidin-4-yl]-N,N,4-trimethylbenzamide] |  | 130 to 133 °C |  |  | > 100 nM | > 15800 nM
8 | Cc1ccc(C(=O)NCc2ccccc2)cc1-c1nc(NCCCN(C)C)nc2c1CNC(=O)N2c1c(F)cccc1F [Example 151] | statistically nonsignificant inhibition of neutrophilia | 141 to 144 °C |  |  |  | 
9 | CCN(CC)C(=O)c1ccc(C)c(-c2nc(NCCN(C)C)nc3c2CNC(=O)N3c2c(F)cccc2F)c1 [156(c), 3-(8-(2,6-difluorophenyl)-2-{[2-(dimethylamino)ethyl]amino}-7-oxo-5,6,7,8-tetrahydropyrimido[4,5-d]pyrimidin-4-yl)-N,N-diethyl-4-methylbenzamide] |  | 125 to 127 °C |  | active | > 100 nM | 
10 | CNC(=O)c1ccc(C)c(-c2nc(N3CCC(N4CCCC4)CC3)nc3c2CNC(=O)N3c2c(F)cccc2F)c1 [Example 175, 3-{8-(2,6-difluorophenyl)-7-oxo-2-[4-(1-pyrrolidinyl)-1-piperidinyl]-5,6,7,8-tetrahydropyrimido[4,5-d]pyrimidin-4-yl}-N,4-dimethylbenzamide] | inactive | 189 to 194 °C (dec.) |  |  |  | 
11 | Cc1ccc(C(=O)N(C)C)cc1-c1nc(N(C)CCCN(C)C)nc2c1CNC(=O)N2c1c(F)cccc1F [Example 154, 3-{8-(2,6-difluorophenyl)-2-[[3-(dimethylamino)propyl](methyl)amino]-7-oxo-5,6,7,8-tetrahydropyrimido[4,5-d]pyrimidin-4-yl}-N,N,4-trimethylbenzamide] |  | 114 to 118 °C |  | active | > 100 nM | 
12 | CNC(=O)c1ccc(C)c(-c2nc(N(C)CCCN(C)C)nc3c2CNC(=O)N3c2c(F)cccc2F)c1 [Example 174, 3-{8-(2,6-difluorophenyl)-2-[[3-(dimethylamino)propyl](methyl)amino]-7-oxo-5,6,7,8-tetrahydropyrimido[4,5-d]pyrimidin-4-yl}-dimethylbenzamide] | inactive | 163 to 165 °C |  |  |  | 
13 | Cc1ccc(C(=O)Nc2ccc(C)c(-c3nc(NC4CC(C)(C)NC(C)(C)C4)nc4c3CNC(=O)N4c3c(F)cccc3F)c2)cc1F [23(e), N-(3-{8-(2,6-difluorophenyl)-7-oxo-2-[(2,2,6,6-tetramethyl-4-piperidinyl)amino]-5,6,7,8-tetrahydropyrimido[4,5-d]pyrimidin-4-yl}-4-methylphenyl)-3-fluoro-4-methylbenzamide] | statistically nonsignificant inhibition of neutrophilia | 220 °C (dec.) |  | active |  | 
14 | Cc1ccc(NC(=O)c2ccsc2)cc1-c1nc(N2CCC(N)CC2)nc2c1CNC(=O)N2c1c(F)cccc1F [Example 11, N-{3-[2-(4-amino-1-piperidinyl)-8-(2,6-difluorophenyl)-7-oxo-5,6,7,8-tetrahydropyrimido[4,5-d]pyrimidin-4-yl]-4-methylphenyl}-3-thiophenecarboxamide] | statistically significant inhibition of neutrophilia | 250 to 261 °C (dec.) |  |  |  | 
15 | CCN(CC)C(=O)c1ccc(C)c(-c2nc(NC3CCN(C)CC3)nc3c2CNC(=O)N3c2c(F)cccc2F)c1 [Example 159, 3-{8-(2,6-difluorophenyl)-2-[(1-methyl-4-piperidinyl)amino]-7-oxo-5,6,7,8-tetrahydropyrimido[4,5-dl-pyrimidin-4-yl}-N,N-diethyl-4-methylbenzamide] |  | 165 to 169 °C |  |  | > 100 nM | 
16 | Cc1ccc(C(=O)Nc2ccc(C)c(-c3nc(N4CCC(N)CC4)nc4c3CNC(=O)N4c3c(F)cccc3F)c2)cc1F [Example 24, N-{3-[2-(4-amino-1-piperidinyl)-8-(2,6-difluorophenyl)-7-oxo-5,6,7,8-tetrahydropyrimido[4,5-d]pyrimidin-4-yl]-4-methylphenyl}-3-fluoro-4-methylbenzamide] | statistically nonsignificant inhibition of neutrophilia | 240 °C |  |  |  | 
17 | Cc1ccc(C(=O)N(C)C)cc1-c1nc(NC2CCN(C)CC2)nc2c1CNC(=O)N2c1c(F)cccc1F [Example 155, 3-{8-(2,6-difluorophenyl)-2-[(1-methyl-4-piperidinyl)amino]-7-oxo-5,6,7,8-tetrahydropyrimido[4,5-d]-pyrimidin-4-yl}N,N,4-trimethylbenzamide] |  | 163 to 165 °C |  | active | > 100 nM | 
18 | Cc1ccc(C(=O)Nc2ccc(C)c(-c3nc(OC(C)C)nc4c3CNC(=O)N4c3c(F)cccc3F)c2)cc1F [Example 26, N-(3-{8-(2,6-difluorophenyl)-2-[(1-methylethyl)oxy]-7-oxo-5,6,7,8-tetrahydropyrimido[4,5-d]pyrimidin-4-yl}-4-methylphenyl)-3-fluoro-4-methylbenzamide] | inactive | 253.5 to 255.4 °C |  |  |  | 
19 | Cc1ccc(C(=O)N(C)C)cc1-c1nc(NCCN(C)C)nc2c1CNC(=O)N2c1c(F)cccc1F [Example 152] |  | 138 to 142 °C |  |  | > 100 nM | 
20 | Cc1ccc(C(=O)Nc2ccc(C)c(-c3nc(N(C)C)nc4c3CNC(=O)N4c3c(F)cccc3F)c2)cc1F [Example 28, N-{3-[8-(2,6-difluorophenyl)-2-(dimethylamino)-7-oxo-5,6,7,8-tetrahydropyrimido[4,5-d]pyrimidin-4-yl]-4-methylphenyl}-3-fluoro-4-methylbenzamide] | statistically nonsignificant inhibition of neutrophilia | 257.8 to 264.3 °C |  | active |  | 
21 | CCN(CC)C(=O)c1ccc(C)c(-c2nc(NCCNC(C)C)nc3c2CNC(=O)N3c2c(F)cccc2F)c1 [Example 160, 3-[8-(2,6-difluorophenyl)-2-({2-[(1-methylethyl)amino]ethyl}amino)-7-oxo-5,6,7,8-tetrahydropyrimido[4,5-d]pyrimidin-4-yl]-N,N-diethyl-4-methylbenzamide] |  | 89 to 91 °C |  |  | > 100 nM | > 15800 nM
22 | CNC(=O)c1ccc(C)c(-c2nc(N3CCC(N4CCCCC4)CC3)nc3c2CNC(=O)N3c2c(F)cccc2F)c1 [Example 176, 3-[2-(1,4′-bipiperidin-1′-yl)-8-(2,6-difluorophenyl)-7-oxo-5,6,7,8-tetrahydropyrimido[4,5-d]pyrimidin-4-yl]-N,4-dimethylbenzamide] | statistically nonsignificant inhibition of neutrophilia | 179 to 184 °C (dec.) |  |  |  | 
